# Entries after “also recorded” stand apart in the source; their conditions may differ. Structures can show the parent of a compound that is named as a salt. Where two headings read alike, the source gives them in different places.
# Assays:
# Assay type in all cases: cell-based, rat
# [1] = tested on: Injury Induced Calcium Channel (IICC); assay: Voltage clamp current/voltage relationship of the injury induced calcium current
# [2] = tested on: hippocampal neurons in culture; assay: Neuronal cell death / survival after excitotoxic glutamate, aging or chronic glutamate injury; conditions: for neuronal cell death produced by excitotoxic glutamate exposure: acute excitotoxic injury, treatment after injury
# [3] = tested on: hippocampal neurons in culture; assay: Extended neuronal depolarization (END), membrane potential recording after excitotoxic glutamate exposure
# [4] = tested on: hippocampal neurons in culture; assay: Intracellular calcium measurement (Indo-1 / Fura-FF) after excitotoxic glutamate exposure; conditions: for prolonged elevation of intra cellular calcium / entry of extra cellular calcium following injury: after excitotoxic glutamate exposure
# [5] = neurons in END after excitotoxic glutamate, voltage steps -90 to +60 mV
# [6] = administered alone or in combination (without gadolinium) after the 10 minute glutamate exposure
# [7] = applied in wash after 10 min 100 uM glutamate + 10 uM glycine
# [8] = chronically administered during aging of neurons
# [9] = chronic exposure during numerous minor chronic glutamate injuries
compound,measurement,setting,value
"N[C@@H](CCCP(=O)(O)O)C(=O)O [APV, reference compound]",effect on IICC current (calcium injury current),[1]; [5],None of the glutamate receptor antagonists had any effect
dilauryl ascorbate,neuronal survival,[2],had no significant effect on neuronal survival
"Cc1c(C)c2c(c(C)c1O)CC[C@@](C)(CCC[C@H](C)CCC[C@H](C)CCCC(C)C)O2 [vitamin E, alpha-tocopherol]",neuronal survival,[2]; [6],had no significant effect on neuronal survival
CCCCCCCCCCCCCCCC(=O)OC[C@H](O)[C@H]1OC(=O)C(O)=C1O [ascorbyl palmitate],neuronal survival,[2]; [6],had no significant effect on neuronal survival
"NS(=O)(=O)c1cccc2c1c([N+](=O)[O-])cc1nc(O)c(O)nc12 [NBQX, reference compound]",effect on IICC current (calcium injury current),[1]; [5],None of the glutamate receptor antagonists had any effect
"N#Cc1cc2[nH]c(=O)c(=O)[nH]c2cc1[N+](=O)[O-] [CNQX, reference compound]",effect on IICC current (calcium injury current),[1]; [5],None of the glutamate receptor antagonists had any effect
"O=C(O)CCCCC1CCSS1 (stereo not drawn) [alpha-lipoate, 1,2-dithiolane-3-pentanoic acid]",neuronal survival,[2]; [6],had no significant effect on neuronal survival
C[C@H]1C[C@@H]2[C@H]([C@@H](O)C[C@@]3(C)[C@H]2CC[C@]3(O)C(=O)CO)[C@@]2(C)C=CC(=O)C=C12 [methlyprednisolone],neuronal survival,[2]; [6],had no significant effect on neuronal survival
"COc1ccc(CCCOC(Cn2ccnc2)c2ccc(OC)cc2)cc1 (stereo not shown) [SKF-96365, reference compound]",reversal of END,[3]; [7],had no effect on reversing END
CC1=C(/C=C/C(C)=C/C=C/C(C)=C/C=C/C=C(C)/C=C/C=C(C)/C=C/C2=C(C)CCCC2(C)C)C(C)(C)CCC1 [beta-carotene],neuronal survival,[2]; [6],had no significant effect on neuronal survival
CCN(CC)Cc1nccn1-c1ccc([N+](=O)[O-])cc1C(=O)c1ccccc1Cl [nizofenone],neuronal survival,[2]; [6],had no significant effect on neuronal survival
"CC(C)COCC(CN(Cc1ccccc1)c1ccccc1)N1CCCC1 (stereo not shown) [Bepridil, reference compound]",reversal of END,[3]; [7],did not block END; also recorded: had no effect in reversing END
same,effect on IICC current (calcium injury current),[1],had no effect on blocking the observed calcium injury current
C[C@@H]1C[C@H]2[C@@H]3CCC4=CC(=O)C=C[C@]4(C)C3=CC[C@]2(C)[C@H]1C(=O)CN1CCN(c2cc(N3CCCC3)nc(N3CCCC3)n2)CC1 [tirilazad mesylate],neuronal survival,[2]; [6],had no significant effect on neuronal survival
O=c1ccc2ccccc2o1 [coumarin],neuronal survival,[2]; [6],had no significant effect on neuronal survival
"[Cl-].[Cl-].[Zn+2] [zinc chloride, reference compound]",reversal of END,"[3]; 5 uM, after excitotoxic glutamate exposure",did not prevent END
same,reversal of END,"[3]; 5 uM, after excitotoxic glutamate exposure, listed as zinc",had no effect in reversing END
"O=C1O[C@H]([C@@H](O)CO)C(O)=C1O [vitamin C, ascorbic acid]",neuronal survival,[2],had no significant effect on neuronal survival
"[Cd] [cadmium, reference compound]",effect on IICC current (calcium injury current),[1],None of these calcium channel blockers had any effect
"[Cl][Gd]([Cl])[Cl] [gadolinium, gadolinium chloride]",reversal of END,[3]; [7],blocked by gadolinium; also recorded: effective in reversing END
same,reversal of END,"[3]; applied in wash after 10 min 100 uM glutamate + 10 uM glycine, listed as Gadolinium",as effective as zero calcium in reversing END; also recorded: able to reverse END as well as zero calcium
same,development of END,"[3]; chronic administration, chronic injury model (multiple minor glutamate exposures)",blocked calcium entry and accumulation and the development of END
same,development of END,[3]; [8],blocked calcium entry and the development of END
same,time for END to return to baseline levels,"[3]; gadolinium in wash after excitotoxic glutamate, controls manifested END for greater than one hour",30 to 40 min
same,prolonged elevation of intra cellular calcium / entry of extra cellular calcium following injury,[4],able to block the extra cellular calcium entering from the bathing solution; also recorded: blocked by gadolinium
same,prolonged elevation of intra cellular calcium / entry of extra cellular calcium following injury,[4]; listed as Gadolinium,effective in reversing the prolonged elevation of intra cellular calcium
same,calcium entry and accumulation,"[4]; chronic administration, chronic injury model",blocked calcium entry and accumulation
same,calcium entry,[4]; [8],blocked calcium entry
same,time for intra cellular calcium to return to baseline levels,"[4]; gadolinium in wash after excitotoxic glutamate, controls sustained at approximately 1-2 uM (indo-1)",30 to 40 min
same,formation of IICCs,[1]; [9],blocked the formation of IICCs
same,development of IICCs,[1]; given chronically to aging neurons,blocked the development of IICCs
same,effect on IICC current (calcium injury current),[1]; [5],inhibited the IICC current
same,effect on IICC current (calcium injury current),"[1]; neurons in END after excitotoxic glutamate, voltage steps -90 to +60 mV, listed as Gadolinium",effectively inhibited the IICC current
same,effect on IICC current (calcium injury current),"[1]; neurons in END after excitotoxic glutamate, voltage steps -90 to +60 mV, listed as gadolinium chloride",returns the neuron from END to baseline (control) conditions
same,neuronal cell death produced by excitotoxic glutamate exposure,[2],effective in reversing
same,neuronal cell death produced by excitotoxic glutamate exposure,[2]; listed as Gadolinium,prevention of delayed neuronal cell death
same,life span of neurons / cell death associated with aging,[2]; administered chronically to neurons as they aged,effective in significantly increasing the life span of the neurons; also recorded: prolonged the life of the neurons
same,neuronal cell death from chronic injury,[2]; [9],prevented the gradual production of neuronal cell death
same,neuronal cell death,[2]; excitotoxic injury in the presence of gadolinium,did not die
heparin,neuronal survival,[2]; [6],had no significant effect on neuronal survival

# Source: patent US20050153930A1, “Inhibition of a novel calcium injury current that forms in nuerons during injury prevents neuronal cell death” (Robert J. DeLorenzo, priority 2000, published 2005)
